For five compounds, IC50 results are on record in patent publication US20150299219A1, “BICYCLIC PYRAZOLONE COMPOUNDS AND METHODS OF USE” (Calitor Sciences, LLC, priority 2014, published 2015).

Experiment [1] has as its target T1, Mer (h) (Homo sapiens, UniProt Q12866).
T1 construct: purchased Millipore UK Ltd
T1 sequence (Q12866 21-999): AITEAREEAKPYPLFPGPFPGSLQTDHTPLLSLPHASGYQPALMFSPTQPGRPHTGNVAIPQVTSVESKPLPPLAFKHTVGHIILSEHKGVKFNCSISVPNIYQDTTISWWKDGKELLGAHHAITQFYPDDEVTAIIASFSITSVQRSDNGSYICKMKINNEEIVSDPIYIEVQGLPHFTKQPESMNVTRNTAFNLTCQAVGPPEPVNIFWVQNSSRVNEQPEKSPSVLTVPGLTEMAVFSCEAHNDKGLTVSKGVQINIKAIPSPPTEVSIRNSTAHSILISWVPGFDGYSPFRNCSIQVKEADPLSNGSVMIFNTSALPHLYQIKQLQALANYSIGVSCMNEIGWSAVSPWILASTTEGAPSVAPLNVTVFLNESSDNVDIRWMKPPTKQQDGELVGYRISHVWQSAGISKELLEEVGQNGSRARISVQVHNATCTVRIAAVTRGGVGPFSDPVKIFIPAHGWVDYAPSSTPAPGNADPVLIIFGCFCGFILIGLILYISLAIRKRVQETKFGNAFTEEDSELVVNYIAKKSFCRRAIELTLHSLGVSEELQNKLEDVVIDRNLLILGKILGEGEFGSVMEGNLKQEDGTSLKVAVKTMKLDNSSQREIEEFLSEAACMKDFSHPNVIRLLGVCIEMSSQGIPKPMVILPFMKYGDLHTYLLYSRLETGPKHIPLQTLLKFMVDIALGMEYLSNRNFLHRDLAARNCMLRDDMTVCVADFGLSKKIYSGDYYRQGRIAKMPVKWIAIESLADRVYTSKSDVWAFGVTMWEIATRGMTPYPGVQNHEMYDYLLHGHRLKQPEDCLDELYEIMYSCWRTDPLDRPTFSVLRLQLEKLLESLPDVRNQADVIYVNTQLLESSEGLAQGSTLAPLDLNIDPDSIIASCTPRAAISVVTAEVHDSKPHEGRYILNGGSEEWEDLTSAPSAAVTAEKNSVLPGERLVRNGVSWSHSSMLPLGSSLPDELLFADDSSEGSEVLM
Description: Mer (h) kinase assay. It counts as biochemical. The protocol:
(§1) The above assay procedure can be used to determine the IC50 for inhibition and/or the inhibition constant, Ki. The IC50 is defined as the concentration of compound required to reduce the enzyme activity by 50% under the condition of the assay. The IC50 value is estimated by preparing a 10 point curve using a 1/2 log dilution series (for example, a typical curve may be prepared using the following compound concentrations: 10 μM, 3 μM, 1 μM, 0.3 μM, 0.1 μM, 0.03 μM, 0.01 μM, 0.003 μM, 0.001 μM and 0 μM).
Mer (h) is incubated with 8 mM MOPS pH 7.0, 0.2 mM EDTA, 30 mM NaCl, 250 μM GGMEDIYFEFMGGKKK, 10 mM MgAcetate and [γ-^33P-ATP] (specific activity approx. 500 cpm/pmol, concentration as required). The reaction is initiated by the addition of the MgATP mix. After incubation for 40 minutes at room temperature, the reaction is stopped by the addition of 3% phosphoric acid solution. 10 μL of the reaction is then spotted onto a P30 filtermat and washed three times for 5 minutes in 75 mM phosphoric acid and once in methanol prior to drying and scintillation counting.
(§2) The kinase assays described herein were performed at Millipore UK Ltd, Dundee Technology Park, Dundee DD2 1SW, UK.

Experiment [2] has as its target T2, Axl (h) (Homo sapiens, UniProt P30530).
T2 construct: purchased Millipore UK Ltd
T2 sequence (P30530 26-894): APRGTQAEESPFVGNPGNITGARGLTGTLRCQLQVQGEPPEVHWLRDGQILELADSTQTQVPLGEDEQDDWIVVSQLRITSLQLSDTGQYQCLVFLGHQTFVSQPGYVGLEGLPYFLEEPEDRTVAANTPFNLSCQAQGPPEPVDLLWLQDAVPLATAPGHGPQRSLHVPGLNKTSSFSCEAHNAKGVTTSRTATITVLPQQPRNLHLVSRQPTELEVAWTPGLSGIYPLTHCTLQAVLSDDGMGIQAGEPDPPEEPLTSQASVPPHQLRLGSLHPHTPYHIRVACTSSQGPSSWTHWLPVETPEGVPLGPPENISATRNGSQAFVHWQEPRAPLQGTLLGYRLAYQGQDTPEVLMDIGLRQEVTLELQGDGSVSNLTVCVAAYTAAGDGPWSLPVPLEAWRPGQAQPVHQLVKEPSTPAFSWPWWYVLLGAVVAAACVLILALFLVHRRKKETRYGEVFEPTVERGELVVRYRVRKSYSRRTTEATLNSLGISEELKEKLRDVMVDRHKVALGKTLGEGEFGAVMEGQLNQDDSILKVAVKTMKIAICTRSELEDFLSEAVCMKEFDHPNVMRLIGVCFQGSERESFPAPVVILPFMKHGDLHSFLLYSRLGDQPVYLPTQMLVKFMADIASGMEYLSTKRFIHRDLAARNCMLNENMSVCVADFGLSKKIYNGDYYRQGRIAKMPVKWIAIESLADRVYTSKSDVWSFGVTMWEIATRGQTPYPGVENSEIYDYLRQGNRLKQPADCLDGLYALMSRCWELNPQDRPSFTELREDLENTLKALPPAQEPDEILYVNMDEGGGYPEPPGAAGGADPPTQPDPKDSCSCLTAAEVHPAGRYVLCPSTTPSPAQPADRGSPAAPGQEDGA
Description: Axl (h) kinase assay. Type of experiment: biochemical. As to the method: as §1
Axl (h) is incubated with 8 mM MOPS pH 7.0, 0.2 mM EDTA, 250 μM KKSRGDYMTMQIG, 10 mM MgAcetate and [γ-^33P-ATP] (specific activity approx. 500 cpm/pmol, concentration as required). The reaction is initiated by the addition of the MgATP mix. After incubation for 40 minutes at room temperature, the reaction is stopped by the addition of 3% phosphoric acid solution. 10 μL of the reaction is then spotted onto a P30 filtermat and washed three times for 5 minutes in 75 mM phosphoric acid and once in methanol prior to drying and scintillation counting.
as §2

`CC(=O)Nc1cc(Oc2ccc(NC(=O)c3c4n(n(-c5ccccc5)c3=O)CCC4)cc2)ccn1` [Ex. 3, N-(4-((2-acetamidopyridin-4-yl)oxy)phenyl)-2-oxo-1-phenyl-2,4,5,6-tetrahydro-1H-pyrrolo[1,2-b]pyrazole-3-carboxamide]: in experiment [1], half-maximal inhibition (IC50) required 35 nM.

Turning to `O=C(Nc1ccc(Oc2ccnc(NC(=O)C3CC3)c2)cc1)c1c2n(n(-c3ccccc3)c1=O)CCOC2` [Ex. 19, N-(4-((2-(cyclopropanecarboxamido)pyridin-4-yl)oxy)phenyl)-2-oxo-1-phenyl-2,4,6,7-tetrahydro-1H-pyrazolo[5,1-c][1,4]oxazine-3-carboxamide], the 50% inhibitory concentration (IC50) in experiment [2] and in experiment [1] was 5 nM each time.

For the compound `O=C(Nc1ccc(Oc2ccnc(NC(=O)C3CC3)c2)cn1)c1c2n(n(-c3ccccc3)c1=O)CCC2` [Ex. 14, N-(5-((2-(cyclopropanecarboxamido)pyridin-4-yl)oxy)pyridin-2-yl)-2-oxo-1-phenyl-2,4,5,6-tetrahydro-1H-pyrrolo[1,2-b]pyrazole-3-carboxamide], the IC50 (as a rule, the point on the concentration scale where inhibition reaches its midpoint) in experiment [2] stood at 7 nM; in experiment [1] it was 8 nM.

Regarding `O=C(Nc1ccc(Oc2ccnc(NC(=O)C3CC3)c2)cc1)c1c2n(n(-c3ccccc3)c1=O)CCC2` [Ex. 2, N-(4-((2-(cyclopropanecarboxamido)pyridin-4-yl)oxy)phenyl)-2-oxo-1-phenyl-2,4,5,6-tetrahydro-1H-pyrrolo[1,2-b]pyrazole-3-carboxamide], half-maximal inhibition in experiment [1] (IC50) was put at 3 nM.

With `CC(=O)Nc1cc(Oc2ccc(NC(=O)c3c4n(n(-c5ccccc5)c3=O)CCOC4)nc2)ccn1` [Ex. 12, N-(5-((2-acetamidopyridin-4-yl)oxy)pyridin-2-yl)-2-oxo-1-phenyl-2,4,6,7-tetrahydro-1H-pyrazolo[5,1-c][1,4]oxazine-3-carboxamide], the concentration for half-maximal inhibition (IC50) is 14 nM in experiment [2] and 74 nM in experiment [1].
